This is an account of results in patent US9464064B2, “HCV helicase inhibitors and methods of use thereof” (University of Kansas, priority 2011, dated 2016).

Where two headings read alike, the source gives them in different places.

The target of assay [1] is MBHA DNA substrate. Put plainly: Fluorescent intercalation displacement (FID) assay, ethidium bromide. The assay is classed as binding. As to conditions: for EC50: FID, mean ± SD, read-out: DNA Binding (Ethidium Bromide) EC50. Here is the method:
Fluorescent intercalation displacement (FID) assays (Boger, et al. (2001) J. Am. Chem. Soc. 123:5878-5891) were used to measure the ability of a compound to bind the MBHA substrate. The concentration at which half the ethidium bromide is displaced (EC50) was determined using the different conditions as above to more closely mimic the conditions of a standard helicase assay. Each 100 μL reaction contained 25 mM MOPS pH 6.5, 0.16 μM MBHA DNA substrate (lacking Cy5 and IBQ-RQ modifications), 2 μM ethidium bromide, and various concentrations of test compound. Fluorescence of ethidium bromide was monitored using excitation and emission wavelengths of 545 and 595 nm, respectively, on a Cary Eclipse fluorescence spectrophotometer in white 96-well plates. The amount of ethidium bromide-DNA complex fluorescence was used to estimate the ability of compounds to bind DNA, and therefore displace the fluorescent intercalator (ethidium bromide).
In Equation 4, Fc is the fluorescence in the presence of the compound, F(−) is the average DMSO-only negative controls, and F(+) is the average positive controls (100 μM berenil). EC50 values were from a normalized dose-response curve.
These twelve hits were then subjected to a counterscreen designed to independently identify DNA binding compounds using a modified fluorescent intercalator displacement (FID) assay (Boger, et al. (2001) supra). The FID assay used ethidium bromide to judge a compound's ability to bind DNA and was based on the assumption that a DNA binding compound would displace a fluorescent DNA intercalating agent, leading to an observable decrease in observed fluorescence. Compounds were tested at 1.5 μM in the presence of the 25 base pair substrate used in the helicase assays.

Assay [2] concerns MBHA DNA substrate. The experiment in a line: Modified FID assay, SYBR Green I. The assay is classed as binding. As to conditions: FID; mean ± SD; read-out: DNA Binding (SYBR Green I) EC50. The method, then:
A modified FID assay, in which ethidium bromide was replaced with SYBR Green I (Invitrogen), was used to estimate a compounds affinity for the MBHA substrate. Reactions were performed as described above except that the DNA substrate was present at 0.32 μM, ethidium bromide was absent, and SYBER Green was present at (0.68 μM). Data were normalized as described above and fit to concentration-response equation using GraphPad Prism software. Titrations with each compound were performed in triplicate, and EC50 values from three independent titrations are reported ±standard deviations.

For a further assay, the target named is T1, NS3h_1b(con1) (Hepatitis C virus genotype 1b, UniProt Q9WMX2).
T1 construct: truncated C-terminally His-tagged NS3 proteins lacking the N-terminal protease, called NS3h; His-tag (C); made in house
The experiment in a line: ATP hydrolysis assay (malachite green). The assay is classed as biochemical. The method, then: A modified “malachite green” assay (Lanzetta, et al. (1979) Anal. Biochem. 100:95-97) was used to measure ATP hydrolysis. Fifty μL reactions contained 25 mM MOPS pH 6.5, 5 mM MgCl2, 2 mM ATP, 5 μg/mL BSA, 0.01% (v/v) TWEEN 20, 0.05 mM DTT, and poly(U) RNA (Saint Louis, Mo.) as indicated. Reactions were initiated by adding NS3h_1b(con1). Reactions were incubated for 15 minutes at 37° C. then stopped by mixing 40 μL of the reaction into 200 μL of the malachite green reagent (3 volumes 0.045% (w/v) malachite green, 1 volume 4.2% ammonium molybdate in 4N HCl, 0.05 volume of 20% TWEEN 20). […] Absorbance at 630 nm was proportional to the concentration of phosphate produced; free phosphate produced was measured against a standard curve.

In assay [3] the target is T2, HCV NS3 helicase NS3h_1b(con1) (Hepatitis C virus genotype 1b, UniProt Q9WMX2).
T2 construct: truncated C-terminally His-tagged NS3 proteins lacking the N-terminal protease, called NS3h; His-tag (C); made in house
The experiment in a line: biochemical. It is filed as biochemical, hepatitis C virus genotype 1b(con1). An excerpt:
All oligonucleotides were purchased from Integrated DNA Technologies (IDT, Coralville, Iowa). The partially duplex DNA substrates used in MBHAs consisted of a helicase substrate forming 25 base pairs and consists of a 45-mer bottom strand 5′-GCTCCCCGTTCATCGATTGGGGAGC(T)20-3′ (SEQ ID NO:1) and the 25-mer HCV top strand 5′-Cy5-GCTCCCCAATCGATGAACGGGGAGC-IBRQ-3′ (SEQ ID NO:2). The 19 base pair RNA substrate used in MBHAs was composed of a 39 nucleotide long bottom strand 5′-AGU GCC UUG ACG AUA CAG C(U)20-3′ (SEQ ID NO:3) and the 24 nucleotide long top strand 5′-Tye^665-AGUGCGCUGUAUCGUCAAGGCACU-IBRQSp-3′ (SEQ ID NO:4). Underlined areas denote hairpin-forming regions. DNA and RNA substrates were annealed and purified as described previously (Belon & Frick (2008) BioTechniques 45:433-40, 442).
The cloning, expression, and purification of His-tagged recombinant HCV NS3 protein have been described previously (Lam, et al. (20030 J. Virol. 77:3950-61; Heck, et al. (2008) Antimicrob. Agents Chemother. 52:1901-11; Frick et al. (2010) Methods Mol. Biol. 587:223-233; Belon, et al. & Frick (2009) J. Mol. Biol. 388:851-864).
All molecular beacon-based helicase assays (MBHAs) were performed according to known methods (Belon & Frick (2008) supra; Belon & Frick (2009) supra). […] In each flat, black 384-well plate, 56 compounds were tested, in triplicate, along with three negative controls (DMSO only), three positive controls (500 nM dT20), and two wells with no enzyme. Fluorescence was read before ATP (F0) addition and 30 minutes after ATP was added to 1 mM (F30) using a Tecan Infinite M200 fluorescence microplate reader with excitation and emission wavelengths set to 643 and 670 nm, respectively. Percent inhibition was calculated with equation 1, and compound interference in the MBHA was calculated with equation 2.
To monitor helicase reaction kinetics and to calculate IC50 values, MBHAs were performed in 60 μL in white ½ area 96-well plates and measured in a Thermo Varioscan Multimode reader (Thermo Scientific) using the 643 nm excitation wavelength and 667 emission wavelengths. Reactions were again performed by first incubating all components except for ATP for two minutes, then initiated by injecting in 1/10 volume of ATP such that the final concentration of all components was as noted above. Conditions were as described above except that 5% v/v DMSO was present in each assay. Initial reaction velocities were calculated by fitting first-order decay equation to data obtained after ATP addition and calculating an initial velocity form the resulting amplitude and rate constant.
[formula] where, v0 is the velocity observed in DMSO-only controls inhibition, h is the Hillslope coefficient, [I] is the concentration of test compound.

Assay [4] deals with T2, HCV NS3 helicase NS3h_1b(con1). The experiment in a line: MBHA screen of NCI mechanistic set library at 20 μM (percent inhibition, compound interference). The assay is classed as biochemical. As to conditions: compounds at 20 μM, MBHA with DNA substrate; for Int.* (Ratio) (Interference): assay interference calculated with Equation 2; for Inh. (%) (Inhibition): calculated from Equation 1. An outline of the steps: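 Molecular beacon-based DNA unwinding assay; compounds screened at 20 μM in triplicate, with DMSO-only negative and 500 nM dT20 positive controls. Fluorescence (ex 643/em 670 nm) was read before and 30 min after adding ATP to 1 mM. Percent inhibition came from the change relative to DMSO controls; interference from pre-ATP fluorescence versus DMSO controls.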

The target in assay [5] is T3, E. coli SSB-Cy5-dT15 complex (Escherichia coli, UniProt P0AGE0).
T3 construct: purchased Promega
The experiment in a line: Escherichia coli SSB Cy5-dT15 binding assay (fluorescence polarization). As to conditions: disruption of Cy5-dT15-SSB complex; read-out: Cy5-dT15-SSB Binding IC50. Here is the method: The Escherichia coli SSB assay was performed in a total volume of 20.2 μl in 384-well, flat-bottom, low volume, black microplates (Greiner Bio-One). First, 20 μl of a assay solution (5 nM Cy5-[…]-3′ (Cy5-dT15, SEQ ID NO:5), 20 nM E. coli SSB (Promega), 25 mM MOPS, pH 7.5, 1.25 mM MgCl2, 0.0025 mg/ml BSA, 0.005% (v/v) TWEEN 20 and 0.025 mM DTT) was dispensed in each well, then 0.2 μl of dimethylsulfoxide (DMSO) or compound dissolved in DMSO was added by pin transfer, such that the final concentration of DMSO was 1% (v/v) in each assay.
For IC50 determination, assays were performed with 60 μl total volume in black flat bottomed 384-well microplates (Corning). First, 3.0 μl of DMSO or compound dissolved in DMSO was added, such that the final concentration of DMSO was 5% (v/v) in each assay. Then 57 μl of a assay solution (5 nM Cy5-dT15, 20 nM SSB, 25 mM MOPS, pH 7.5, 1.25 mM MgCl2, 0.0025 mg/ml BSA, 0.005% (v/v) TWEEN 20 and 0.025 mM DTT) was dispensed in each well. Polarization was monitored with a TECAN Infinite M1000 PRO multi-mode microplate reader by exciting at 635 nm (5 nm bandwidth) and measuring total fluorescence intensity, parallel and perpendicular polarized light at 667 nm (20 nm bandwidth).

The mark [6] stands for this setting: MBHA, DNA unwinding, mean ± SD of three titrations, read-out: Helicase IC50.
Setting [7] is: standard HCV helicase MBHA (Table 9), read-out: DNA Unwinding IC50.

T1 sequence (Q9WMX2 1192-1657): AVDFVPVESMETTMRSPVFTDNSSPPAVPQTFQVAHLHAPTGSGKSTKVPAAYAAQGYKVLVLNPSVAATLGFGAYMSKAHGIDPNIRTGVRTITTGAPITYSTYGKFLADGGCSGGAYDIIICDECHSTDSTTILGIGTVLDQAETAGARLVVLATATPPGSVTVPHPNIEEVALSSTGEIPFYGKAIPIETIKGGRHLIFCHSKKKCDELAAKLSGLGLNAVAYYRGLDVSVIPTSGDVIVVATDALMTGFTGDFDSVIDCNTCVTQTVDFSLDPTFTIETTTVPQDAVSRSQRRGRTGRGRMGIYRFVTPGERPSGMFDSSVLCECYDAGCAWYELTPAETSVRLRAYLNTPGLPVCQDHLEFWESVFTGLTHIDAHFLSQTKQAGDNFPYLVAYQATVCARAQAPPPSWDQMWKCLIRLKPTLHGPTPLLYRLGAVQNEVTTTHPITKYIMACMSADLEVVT
T2 sequence (Q9WMX2 1192-1657): as above
T3 sequence (P0AGE0 2-178, one chain of several): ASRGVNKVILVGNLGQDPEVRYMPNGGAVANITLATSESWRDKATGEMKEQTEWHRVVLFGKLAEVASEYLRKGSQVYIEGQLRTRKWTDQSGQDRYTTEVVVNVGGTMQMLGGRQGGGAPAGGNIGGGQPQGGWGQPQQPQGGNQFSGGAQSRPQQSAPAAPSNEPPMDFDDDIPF

As for `N=C(N)c1ccc(N=NNc2ccc(C(=N)N)cc2)cc1` [Berenil, reference compound], on MBHA DNA substrate [1] (ethidium bromide FID, read-out: IC50 in FID assays (positive control)), the half-inhibitory concentration (IC50) was 1.6 ± 0.1 µM.
In the case of `Cc1cc(C(O)(c2ccc(Nc3ccccc3)cc2)c2ccc(Nc3ccc(S(=O)(=O)O)cc3)cc2)ccc1N` (stereo not drawn) [Compound 3, reference compound], the EC50 in the assay on MBHA DNA substrate [2] stood at 20 ± 2 µM; on MBHA DNA substrate [1], 4 ± 2 µM. For the same molecule, the half-inhibitory concentration (IC50) was above 100 µM at NS3h_1b(con1) and 17 ± 7 µM in assay [3] (setting [6]).
In the case of `CN1CCN(Cc2cc(CN3CCN(C)CC3)c(O)c(=O)c(CN3CCN(C)CC3)c2)CC1` [Compound 4, reference compound], the EC50 is 74 ± 21 µM in the assay on MBHA DNA substrate [2] and above 100 µM on MBHA DNA substrate [1]. Also, the 50% inhibitory concentration (IC50) on NS3h_1b(con1) is above 100 µM; in assay [3] (setting [6]), 19 ± 8 µM.
As to `Cc1ccc(S(=O)(=O)c2ccc([N+](=O)[O-])o2)cc1` [Compound 697923], in assay [4], the “Int.* (Ratio) (Interference)” value is on record as 1.07 Ratio and the “Inh. (%) (Inhibition)” value is reported as −14.4%.
Taken in the same sequence, the figures for `Cc1nnc(-n2c(O)cc(=O)n(-c3ccccc3)c2=S)nc1/C=C/c1ccc(N(C)C)cc1` [Compound 698031] were 0.98 Ratio and −16.0%.
As to `CN(C)c1ccc(C=c2c3ccccc3n3c2cc(-c2ccc(Cl)cc2)[n+]3C)cc1.O=S(=O)([O-])C(F)(F)F` [Compound 699479], in assay [4], the “Int.* (Ratio) (Interference)” value was 0.38 Ratio and the “Inh. (%) (Inhibition)” value is given as 45.1%.
On to `CCCCn1c2c(n(CCCC)c1=S)-c1c(n(CCCC)c(=S)n1CCCC)SSSS2` [Compound 700582], for which, in assay [4], the “Int.* (Ratio) (Interference)” value was 0.93 Ratio and the “Inh. (%) (Inhibition)” value was −16.2%.
For `Cc1ccc2nc(-c3ccc(N)cc3)sc2c1S(=O)(=O)O` [Compound P1a, 2-(4-aminophenyl)-6-methylbenzo[d]thiazole-7-sulfonic acid], the concentration for a half-maximal effect (EC50) with MBHA DNA substrate [2] and at MBHA DNA substrate [1] was above 100 µM in each case. Moreover, the 50% inhibitory concentration (IC50) against NS3h_1b(con1) was above 100 µM; in assay [3] (setting [6]), 70 ± 31 µM; in assay [3] (setting [7]), 70 ± 31 µM; in assay [5], 13 ± 4 µM.
In the case of `Cc1cc2sc(-c3ccc(N)cc3)nc2cc1S(=O)(=O)O` [Compound P1b, 2-(4-aminophenyl)-6-methylbenzo[d]thiazole-5-sulfonic acid], the EC50 in the assay on MBHA DNA substrate [2] and on MBHA DNA substrate [1] was above 100 µM in each case. Also, the concentration for half-maximal inhibition (IC50) against NS3h_1b(con1) was above 100 µM; in assay [3] (setting [6]) it was 122 ± 5 µM; in assay [3] (setting [7]) it was 122 ± 5 µM; in assay [5] it was 19 ± 8 µM.
On to `Cc1cc2sc(-c3ccc4nc(-c5ccc(N)cc5)sc4c3)nc2cc1S(=O)(=O)O` [Compound P2b, 2′-(4-aminophenyl)-6-methyl-[2,6′-bibenzo[d]thiazole]-5-sulfonic acid], for which the half-maximal effective concentration (EC50) in the assay with MBHA DNA substrate [2] came to 32 ± 3 µM; on MBHA DNA substrate [1], 73 ± 36 µM. The concentration for half-maximal inhibition (IC50) at NS3h_1b(con1) is above 100 µM; in assay [3] (setting [6]), 10 ± 4.6 µM; in assay [3] (setting [7]), 7 ± 4 µM; in assay [5], 1 µM.
As for `CCN(CC)c1ccc(-c2nc3ccc(C)c(S(=O)(=O)O)c3s2)cc1` [Compound T1, 2-(4-(diethylamino)phenyl)-6-methylbenzo[d]thiazole-7-sulfonic acid], the IC50 is above 100 µM against NS3h_1b(con1), 33 ± 24 µM in assay [3] (setting [6]), 33 ± 24 µM in assay [3] (setting [7]) and 7 ± 2 µM in assay [5]. In addition, the EC50 on MBHA DNA substrate [1] was above 100 µM.
For the molecule `CCN(CC)c1ccc(-c2nc3ccc(-c4nc5ccc(C)c(S(=O)(=O)O)c5s4)cc3s2)cc1` [Compound T2, 2′-(4-(diethylamino)phenyl)-6-methyl-[2,6′-bibenzo[d]thiazole]-7-sulfonic acid], the IC50 in assay [3] (setting [6]) came to 26 ± 21 µM; in assay [3] (setting [7]) it was 5 ± 2 µM; in assay [5] it was 2 µM. In addition, on MBHA DNA substrate [1], the half-maximal effective concentration (EC50) is above 100 µM.
`Cc1c2ccncc2c(C)c2c1[nH]c1ccccc12` [ellipticine, reference compound]: in assay [3] (setting [6]), the IC50 turned out to be 5.6 ± 0.8 µM.
